Source: patent publication US20260345555A1, “Compositions and Methods for Protecting Salivary Glands from Off-Target Radiation Damage” (University of Rochester, priority 2022, published 2026)
Where a name gives a salt, the structure may show the parent alone.

Each compound was assayed on Reduced glutathione in salivary gland cell clusters (SGm) (assay: Glutathione assay in salivary gland tissue chip, 4 days post-radiation (15 Gy); also first screen of Selleck library at 100 μM). Details: not given.
Format: cell-based, mouse
Text: A salivary gland tissue chip was leveraged for high-content drug screening to identify novel radioprotective compounds (Song Y et al., Commun Biol., 2021, 4). The chip platform consists of an array of near-spherical microbubble (MB) cavities formed in poly(dimethylsiloxane) (PDMS). Each chip, containing ~50 MBs, affixed within wells of a 96-well plate (FIG. 1C). Primary salivary gland cell clusters (FIG. 1A), suspended in a poly(ethylene glycol) (PEG) hydrogel precursor and MMP-degradable peptide crosslinker solution together with the photoinitiator LAP, were applied to the chip allowing the clusters to deposit into the MBs (FIG. 1D). In situ polymerization of the hydrogel was achieved using long-wave, low intensity UV light. Over time, the cell clusters aggregate and proliferate to form SGm (FIG. 1C).
The glutathione assay was used to measure glutathione levels at various time points post-radiation to determine the optimal time point for detecting differences between 0 Gy and 15 Gy. Based on the data, the greatest signal separation was measured at 4 days post-irradiation (FIG. 9). This timepoint is similar to previous reports on decreases in glutathione post-radiation and was used for all experiments moving forward (Meeks L et al., Physiological Genomics, 2021, 53: 85-98).
The dose response to WR-1065 was examined to determine effective concentrations of WR-1065 to prevent the reduction of glutathione levels post-radiation. A SGm tissue chip was cultured for 4 days to allow spheres to form. The chip was then treated with WR-1065 30 minutes before and during radiation, followed by drug wash out with media 30 minutes post-radiation (FIG. 2A). This dosing scheme is consistent with the use of Amifostine clinically and with previous work. The glutathione assay was performed at 4 days post-radiation (FIG. 2A). […] Moreover, it is clinically relevant as 15-30 minutes before radiation, patients are administered Amifostine intravenously at 200 mg/m (Escobar A et al., IntechOpen, 2019, pp. 15-37; Eisbruch A, J Clin Oncol, 2011, 29: 119-121; Bardet, E. et al. Semin Oncol, 2002, 29, 57-60). Assuming an average adult body surface area of 17,000 cm^2 and a blood volume of 1.35 gallons (5.1 liters), Amifostine is administered at 300 μM (Mosteller, R. D. N Engl J Med 317, 1098 (1987)).
The glutathione and senescence assays were used to screen a library of FDA-approved drugs (Selleck Chemicals) at 100 μM. Drugs were first screened using the glutathione assay according to the timeline depicted in FIG. 2A. Any compound resulting in statistically similar glutathione levels compared to 0 Gy control was considered a hit (FIG. 4, grey circles). Hits with the glutathione assay were then tested with the senescence assay and considered a “double hit” if senescence levels were statistically similar to levels at 0 Gy (FIG. 4, black circles). […] While this hit rate is higher than many other drug screening reports (0.1-0.3%), this may be due to the statistical rigor afforded by the tissue chip format (Blanchard, C et al., Antimicrob Agents Chemother 2016, 60, 862-872; Colquhoun, J. M et al., Antibiotics (Basel) 2019, 8, 48). Additionally, phenotypic screens generally have higher hit rates than target-based screens (>1%) (Moffat, J. G et al., Nature Reviews Drug Discovery 2017, 16, 531-543; Rottman, M et al., Science 2010, 329, 1175-1180).
Mice were euthanized and the submandibular glands (SMG) were removed and chopped with a razor blade for 5 min. The tissue was then incubated in Hank's buffered salt solution (HBSS) containing 15 mM HEPES, 50 U/mL collagenase type II (Thermo Fischer 17101015), and 100 U/mL hyaluronidase (Sigma Aldrich H3506) at 37 °C for 30 min. Cells were centrifuged, then resuspended in HBSS with 15 mM HEPES and passed through 100 μm and 20 μm mesh filters to isolate clusters between 20-100 μm. The digestion protocol produces cell cluster sizes evenly distributed between 20 to 100 μm (Song, Y et al., Advanced Healthcare Materials). […]

**Q.** With `O=P1(N(CCCl)CCCl)NCCCO1` (stereo not drawn) [Clafen (Cyclophosphamide)] as the compound, how does the “Glutathione: Normalized mean intensity” value read?
**A.** 0.5778

**Q.** Which “Glutathione: Normalized mean intensity” value does the source give for `O=P1(NCCCl)OCCCN1CCCl` (stereo not drawn) [Ifosfamide] here?
**A.** 0.7162

**Q.** Which “Glutathione: Normalized mean intensity” value does the source give for `Cc1c(OCC(F)(F)F)ccnc1C[S+]([O-])c1nc2ccccc2[nH]1` (stereo not drawn) [Lansoprazole] here?
**A.** 0.6174

**Q.** How did the “Glutathione: Normalized mean intensity” value turn out when `CC(=O)Oc1ccccc1C(=O)Nc1ncc([N+](=O)[O-])s1` [Nitazoxanide (Alinia, Annita)] was run?
**A.** 0.5996

Same assay, conditions: first screen of Selleck library at 100 μM, 15 Gy, 4 days post-radiation

**Q.** Which “Glutathione normalized mean intensity” value does the source give for `CC(C)n1c(/C=C/[C@H](O)C[C@H](O)CC(=O)O)c(-c2ccc(F)cc2)c2ccccc21` (racemic) [Fluvastatin sodium (Lescol)] here?
**A.** 0.5791

**Q.** Which “Glutathione normalized mean intensity” value does the source give for `NC(=O)c1ncn([C@@H]2O[C@H](CO)[C@@H](O)[C@H]2O)c1N` [Acadesine] here?
**A.** 0.3637

**Q.** `C=CCc1cc(OC)c(O)c(C(=O)NCCO)c1` [Alibendol] was tested. Which “Glutathione normalized mean intensity” value did it give?
**A.** 0.7165

**Q.** Which “Glutathione normalized mean intensity” value does the source give for `COc1ccc(CC2c3cc(OC)c(OC)cc3CC[N+]2(C)CCC(=O)OCCCCCOC(=O)CC[N+]2(C)CCc3cc(OC)c(OC)cc3C2Cc2ccc(OC)c(OC)c2)cc1OC` (stereo not drawn) [Atracurium besylate] here?
**A.** 0.6611

**Q.** `COc1ccc(C(=O)CC(=O)c2ccc(C(C)(C)C)cc2)cc1` [Avobenzone (Parsol 1789)] was tested. Which “Glutathione normalized mean intensity” value did it give?
**A.** 0.5309

**Q.** Which “Glutathione normalized mean intensity” value does the source give for `Nc1ncn([C@@H]2O[C@H](CO)[C@@H](O)[C@H]2O)c(=O)n1` [Azacitidine (Vidaza)] here?
**A.** 0.5322

**Q.** How did the “Glutathione normalized mean intensity” value turn out when `CC[C@H]1OC(=O)[C@H](C)[C@@H](O[C@H]2C[C@@](C)(OC)[C@@H](O)[C@H](C)O2)[C@H](C)[C@@H](O[C@@H]2O[C@H](C)C[C@H](N(C)C)[C@H]2O)[C@](C)(O)C[C@@H](C)CN(C)[C@H](C)[C@@H](O)[C@]1(C)O` [Azithromycin (Zithromax)] was run?
**A.** 0.8765

**Q.** With `c1ccc(-c2ccc(C(c3ccccc3)n3ccnc3)cc2)cc1` (stereo not drawn) [Bifonazole] as the compound, how does the “Glutathione normalized mean intensity” value read?
**A.** 0.6115

**Q.** For `Clc1ccc(CCC(Cn2ccnc2)Sc2c(Cl)cccc2Cl)cc1` (stereo not drawn) [Butoconazole nitrate], which “Glutathione normalized mean intensity” value is on record?
**A.** 0.6197

**Q.** Which “Glutathione normalized mean intensity” value does the source give for `C[C@@](Cc1ccc(O)c(O)c1)(NN)C(=O)O` [Carbidopa] here?
**A.** 0.5325

**Q.** `Oc1c(Cl)cc(Cl)c2cccnc12` [Chloroxine] was tested. Which “Glutathione normalized mean intensity” value did it give?
**A.** 0.1604

**Q.** For `CN=C(NC#N)NCCSCc1nc[nH]c1C` [Cimetidine (Tagamet)], which “Glutathione normalized mean intensity” value is on record?
**A.** 0.9597

**Q.** With `CN(C)c1ccc(C(=C2C=CC(=[N+](C)C)C=C2)c2ccc(N(C)C)cc2)cc1` [Crystal violet] as the compound, how does the “Glutathione normalized mean intensity” value read?
**A.** 0.1262

**Q.** For `O=c1c(-c2ccc(O)cc2)coc2cc(O)ccc12` [Daidzein], which “Glutathione normalized mean intensity” value is on record?
**A.** 0.5394

**Q.** `CN(C)[C@@H](CCOc1cccc2ccccc12)c1ccccc1` [Dapoxetine hydrochloride (Priligy)] was tested. Which “Glutathione normalized mean intensity” value did it give?
**A.** 0.7539

**Q.** For `CC(=O)OCC(=O)[C@@]12N=C(C)O[C@@H]1C[C@H]1[C@@H]3CCC4=CC(=O)C=C[C@]4(C)[C@H]3[C@@H](O)C[C@@]12C` [Deflazacort (Calcort)], which “Glutathione normalized mean intensity” value is on record?
**A.** 0.5114

**Q.** How did the “Glutathione normalized mean intensity” value turn out when `O=C(O)Cc1ccccc1Nc1c(Cl)cccc1Cl` [Diclofenac] was run?
**A.** 0.334

**Q.** How did the “Glutathione normalized mean intensity” value turn out when `COc1ccc([C@@H]2Sc3ccccc3N(CCN(C)C)C(=O)[C@@H]2OC(C)=O)cc1` [Diltiazem HCL (Tiazac)] was run?
**A.** 0.7425

**Q.** For `CN(C)CCOC(c1ccccc1)c1ccccc1` [Diphenhydramine HCl (Benadryl)], which “Glutathione normalized mean intensity” value is on record?
**A.** 0.6149

**Q.** For `OCCN(CCO)c1nc(N2CCCCC2)c2nc(N(CCO)CCO)nc(N3CCCCC3)c2n1` [Dipyridamole (Persantine)], which “Glutathione normalized mean intensity” value is on record?
**A.** 0.5847

**Q.** Which “Glutathione normalized mean intensity” value does the source give for `O=C([O-])c1cc(=O)c2c(OCC(O)COc3cccc4oc(C(=O)[O-])cc(=O)c34)cccc2o1.[Na+].[Na+]` [Disodium Cromoglycate] here?
**A.** 0.6798

**Q.** `CCOC(=O)[C@H](CCc1ccccc1)N[C@@H](C)C(=O)N1CCC[C@H]1C(=O)O` [Enalapril maleate (Vasotec)] was tested. Which “Glutathione normalized mean intensity” value did it give?
**A.** 0.8307

**Q.** `O=C(O)CSCC(=O)NC1CCSC1=O` (stereo not drawn) [Erdosteine] was tested. Which “Glutathione normalized mean intensity” value did it give?
**A.** 0.5728

**Q.** `CCc1cc(C(N)=S)ccn1` [Ethionamide] was tested. Which “Glutathione normalized mean intensity” value did it give?
**A.** 0.7451

**Q.** `CC(C)OC(=O)C(C)(C)Oc1ccc(C(=O)c2ccc(Cl)cc2)cc1` [Fenofibrate (Tricor, Trilipix)] was tested. Which “Glutathione normalized mean intensity” value did it give?
**A.** 0.5348

**Q.** With `CC(C)C(=O)Nc1ccc([N+](=O)[O-])c(C(F)(F)F)c1` [Flutamide (Eulexin)] as the compound, how does the “Glutathione normalized mean intensity” value read?
**A.** 0.6406

**Q.** Which “Glutathione normalized mean intensity” value does the source give for `Nc1nc(O)c2ncn(COC(CO)CO)c2n1` [Ganciclovir] here?
**A.** 0.5803

**Q.** With `O=C(CCCN1CCC(O)(c2ccc(Cl)cc2)CC1)c1ccc(F)cc1` [Haloperidol (Haldol)] as the compound, how does the “Glutathione normalized mean intensity” value read?
**A.** 0.6675

**Q.** `NC(=O)NO` [Hydroxyurea (Cytodrox)] was tested. Which “Glutathione normalized mean intensity” value did it give?
**A.** 0.4236

**Q.** Which “Glutathione normalized mean intensity” value does the source give for `O=c1[nH]c(=O)n([C@H]2C[C@H](O)[C@@H](CO)O2)cc1I` [Idoxuridine] here?
**A.** 0.7701

**Q.** `Nc1nc(N)nc(-c2cc(Cl)ccc2Cl)n1` [Irsogladine] was tested. Which “Glutathione normalized mean intensity” value did it give?
**A.** 0.613

**Q.** How did the “Glutathione normalized mean intensity” value turn out when `NNC(=O)c1ccncc1` [Isoniazid (Tubizid)] was run?
**A.** 0.3683

**Q.** Which “Glutathione normalized mean intensity” value does the source give for `c1ccc([C@H]2CN3CCSC3=N2)cc1` [Levamisole Hydrochloride (Ergamisol)] here?
**A.** 0.8181

**Q.** For `C[C@H]1COc2c(N3CCN(C)CC3)c(F)cc3c(=O)c(C(=O)O)cn1c23` [Levofloxacin (Levaquin)], which “Glutathione normalized mean intensity” value is on record?
**A.** 0.6541

**Q.** For `CC1=CC(=O)c2ccccc2C1=O` [Menadione], which “Glutathione normalized mean intensity” value is on record?
**A.** 0.4363

**Q.** Which “Glutathione normalized mean intensity” value does the source give for `CN(C)C(=N)N=C(N)N` [Metformin hydrochloride (Glucophage)] here?
**A.** 0.6991

**Q.** `COc1c2occc2cc2ccc(=O)oc12` [Methoxsalen (Oxsoralen)] was tested. Which “Glutathione normalized mean intensity” value did it give?
**A.** 0.6397

**Q.** How did the “Glutathione normalized mean intensity” value turn out when `COCCc1ccc(OCC(O)CNC(C)C)cc1` (stereo not drawn) [Metoprolol tartrate] was run?
**A.** 0.829

**Q.** How did the “Glutathione normalized mean intensity” value turn out when `Cc1ncc([N+](=O)[O-])n1CCO` [Metronidazole (Flagyl)] was run?
**A.** 0.5627

**Q.** How did the “Glutathione normalized mean intensity” value turn out when `Cc1cccc(C)c1NC(=O)CN1CCCC1=O` [Nefiracetam (Translon)] was run?
**A.** 0.6824

**Q.** `NC(=O)c1cccnc1` [Nicotinamide (Niacinamide)] was tested. Which “Glutathione normalized mean intensity” value did it give?
**A.** 0.6872

**Q.** `CNC(=C[N+](=O)[O-])NCCSCc1csc(CN(C)C)n1` [Nizatidine] was tested. Which “Glutathione normalized mean intensity” value did it give?
**A.** 0.5754

**Q.** How did the “Glutathione normalized mean intensity” value turn out when `C[C@@H]1[C@H](O)[C@@H](C)/C=C/C=C/CC/C=C/C=C/C=C/C=C/C(O[C@H]2O[C@H](C)[C@@H](O)[C@H](N)[C@@H]2O)CC2O[C@](O)(CC(O)C(O)CCC(O)CC(O)CC(O)CC(=O)O[C@H]1C)CC(O)C2C(=O)O` (stereo partly drawn) [Nystatin (Mycostatin)] was run?
**A.** 0.3498

**Q.** `COC(=O)Nc1nc2ccc([S+]([O-])c3ccccc3)cc2[nH]1` (stereo not drawn) [Oxfendazole] was tested. Which “Glutathione normalized mean intensity” value did it give?
**A.** 0.6
